These results are taken from paper PMC12932713, “Structure-activity relationship of prevalent synthetic cannabinoid metabolites on hCB1 in vitro and in silico dynamics” (Acta Pharmacologica Sinica, 2025).

One assay has as its target hCB1 receptor (Homo sapiens, UniProt P21554). Description: AequoScreen hCB1 receptor assay (flash luminescence, recombinant CHO-K1 cells). The note with it: for Emax: CHO-K1, read-out: Efficacy (% JWH-018 activity), Emax, Emax from dose-response curves, normalized to JWH-018 at 20 µg/mL; for Emax / Efficacy (% JWH-018 activity), Emax: triplicates; for pEC50: EC50, 8 concentrations 20 µg/mL to 76 or 9.5 ng/mL, normalized to JWH-018 between runs; for Potency retained, % of the potency of the parent: hydroxyindole metabolites versus AM-2201 or JWH-018; for Efficacy (% JWH-018 activity), Emax: Emax from dose-response curves, normalized to JWH-018 at 20 µg/mL.

For the next assay, the system named is CB1 receptor. The following applies: cited from earlier work.
For assay [1], the system named is serotonin receptor 5-HT2A. On the set-up: method as in PMID 27779402, PMID 33160102, PMID 21755008. The following applies: cited from earlier work.

The structures appear in SMILES notation. pEC50: −log10 of the molar value.

hCB1 receptor, sequence (P21554 whole entry): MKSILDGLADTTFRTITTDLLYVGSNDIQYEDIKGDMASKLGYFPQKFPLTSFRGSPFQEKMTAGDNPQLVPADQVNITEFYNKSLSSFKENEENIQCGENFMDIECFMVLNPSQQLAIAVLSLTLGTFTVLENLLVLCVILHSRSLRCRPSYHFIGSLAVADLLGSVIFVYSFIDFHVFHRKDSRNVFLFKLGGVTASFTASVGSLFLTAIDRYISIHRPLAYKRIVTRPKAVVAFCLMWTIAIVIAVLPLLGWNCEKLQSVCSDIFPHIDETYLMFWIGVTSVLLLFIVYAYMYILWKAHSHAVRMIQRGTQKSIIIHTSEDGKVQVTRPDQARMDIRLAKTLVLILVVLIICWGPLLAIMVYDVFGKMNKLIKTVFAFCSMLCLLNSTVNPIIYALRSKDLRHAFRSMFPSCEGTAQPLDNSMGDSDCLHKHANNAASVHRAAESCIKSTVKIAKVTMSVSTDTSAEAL

For `O=C(c1cccc2ccccc12)c1c(O)n(CCCCCF)c2ccccc12` [2-OH indole AM-2201], the Emax on hCB1 receptor worked out at 0.26%.
The same measure, in the same setting: as for `CCCCCn1c(O)c(C(=O)c2cccc3ccccc23)c2ccccc21` [2-OH indole JWH-018], the figure is -0.38%.
As to `O=C(c1cccc2ccccc12)c1cn(CC(O)CCCF)c2ccccc12` (stereo not drawn) [2-OH pentyl AM-2201], at hCB1 receptor, the Emax is 95.1% and the pEC50 is 6.43.
On to `CCCC(O)Cn1cc(C(=O)c2cccc3ccccc23)c2ccccc21` (stereo not drawn) [2-OH pentyl JWH-018], for which, at hCB1 receptor, the Emax came out at 82% and the pEC50 was 6.13.
Regarding `CCCC(O)Cn1nc(C(=O)c2cccc3ccccc23)c2ccccc21` (stereo not drawn) [2-OH pentyl THJ-018], on hCB1 receptor, the Emax was determined as 93.6% and the pEC50 is 5.96.
For `O=C(c1cccc2ccccc12)c1nn(CC(O)CCCF)c2ccccc12` (stereo not drawn) [2-OH-pentyl THJ-2201], in that order: 87% and 6.40.
In the same order, the values of `O=C(c1cccc2ccccc12)c1cn(CCC(O)CCF)c2ccccc12` (stereo not drawn) [3-OH pentyl AM-2201] are 100% and 6.66.
In the same order, the values of `CCC(O)CCn1cc(C(=O)c2cccc3ccccc23)c2ccccc21` (stereo not drawn) [3-OH pentyl JWH-018] are 96% and 5.46.
Consider `CCC(O)CCn1nc(C(=O)c2cccc3ccccc23)c2ccccc21` (stereo not drawn) [3-OH pentyl THJ-018], for which, on hCB1 receptor, the Emax worked out at 99.8% and the pEC50 was 6.69.
For `O=C(c1cccc2ccccc12)c1nn(CCC(O)CCF)c2ccccc12` (stereo not drawn) [3-OH-pentyl THJ-2201], in that order: 101% and 6.80.
As for `O=C(c1cccc2ccccc12)c1cn(CCCCCF)c2cccc(O)c12` [4-OH indole AM-2201], on hCB1 receptor, the Emax turned out to be 94.6%; the pEC50 is 7.36; the “Potency retained, % of the potency of the parent” value (“Potency retained, %” below) is listed as 83%.
Take `CCCCCn1cc(C(=O)c2cccc3ccccc23)c2c(O)cccc21` [4-OH indole JWH-018]: in the assay with CB1 receptor, the “Activity on the CB1 receptor in words” value is “active”. In addition, on hCB1 receptor, the Emax came to 89.8%; the pEC50 is 7.08; the “Potency retained, %” value was found to be 51%.
As to `O=C(c1cccc2ccccc12)c1cn(CCCC(O)CF)c2ccccc12` (stereo not drawn) [4-OH pentyl AM-2201], on hCB1 receptor, the Emax came out at 97.1% and the pEC50 is 7.20.
For the compound `CC(O)CCCn1cc(C(=O)c2cccc3ccccc23)c2ccccc21` (stereo not drawn) [4-OH pentyl JWH-018], the “hCB1 activity in other in vitro studies, in words” value (“hCB1 activity in other” for short) in the assay with CB1 receptor is reported as “active metabolites”. Also, on hCB1 receptor, the Emax came out at 105% and the pEC50 is 6.54.
For the compound `CC(O)CCCn1nc(C(=O)c2cccc3ccccc23)c2ccccc21` (stereo not drawn) [4-OH pentyl THJ-018], at hCB1 receptor, the Emax came out at 98.5% and the pEC50 was 6.76.
With `O=C(c1cccc2ccccc12)c1nn(CCCC(O)CF)c2ccccc12` (stereo not drawn) [4-OH-pentyl THJ-2201], on hCB1 receptor, the Emax was determined as 99.2% and the pEC50 is 7.86. The “Potency increase versus the parent SC” value at hCB1 receptor (metabolite more potent than parent) was 2.2 ×.
As to `O=C(c1cccc2ccccc12)c1cn(CCCCCF)c2ccc(O)cc12` [5-OH indole AM-2201], at hCB1 receptor, the Emax turned out to be 93.4%; the negative logarithm of the EC50 (pEC50) was 6.51; the “Potency retained, %” value is on record as “over 12%”.
Regarding `CCCCCn1cc(C(=O)c2cccc3ccccc23)c2cc(O)ccc21` [5-OH indole JWH-018], the “Activity on the CB1 receptor in words” value in the assay on CB1 receptor was “active”. For the same compound, at hCB1 receptor, the Emax turned out to be 88.9%; the pEC50 is 5.95; the “Potency retained, %” value is reported as 4%.
For `O=C(c1cccc2ccccc12)c1cn(CCCCCO)c2ccccc12` [5-OH pentyl JWH-018], the “hCB1 activity in other” value in the assay on CB1 receptor was “active metabolites”. Further, on hCB1 receptor, the Emax was determined as 63.1% and the pEC50 was 6.75. Besides, the “hCB1 activity class in words (full agonist, partial agonist, inactive)” value on hCB1 receptor (less than 20% efficacy regarded as inactive) is on record as “partial agonist”.
Turning to `O=C(c1cccc2ccccc12)c1nn(CCCCCO)c2ccccc12` [5-OH pentyl THJ-018], on hCB1 receptor, the Emax worked out at 67.3% and the pEC50 was 6.56.
As for `O=C(c1cccc2ccccc12)c1cn(CCCCCF)c2cc(O)ccc12` [6-OH indole AM-2201], on hCB1 receptor, the Emax amounted to 94%; the pEC50 is 6.91; the “Efficacy (% JWH-018 activity), Emax” value is 94.04 % JWH-018 activity; the “Potency retained, %” value is “over 12%”.
Take `CCCCCn1cc(C(=O)c2cccc3ccccc23)c2ccc(O)cc21` [6-OH indole JWH-018]: in the assay on CB1 receptor, the “Activity on the CB1 receptor in words” value was “active” and the “hCB1 activity in other” value is “significantly less Emax than its 5-hydroxy isomer”. Besides, on hCB1 receptor, the Emax was found to be 59%; the pEC50 is 6.34; the “Efficacy (% JWH-018 activity), Emax” value is 59.31 % JWH-018 activity; the “Potency retained, %” value worked out at 4%.
Regarding `O=C(c1cccc2ccccc12)c1cn(CCCCCF)c2c(O)cccc12` [7-OH indole AM-2201], at hCB1 receptor, the Emax came to 110%; the pEC50 is 6.55; the “Efficacy (% JWH-018 activity), Emax” value amounted to 109.80 % JWH-018 activity; the “Potency retained, %” value is recorded as “over 12%”.
As to `CCCCCn1cc(C(=O)c2cccc3ccccc23)c2cccc(O)c21` [7-OH indole JWH-018], the “Activity on the CB1 receptor in words” value in the assay with CB1 receptor is reported as “active”. At hCB1 receptor, the Emax is less than 20% and the “Efficacy (% JWH-018 activity), Emax” value turned out to be 15.81 % JWH-018 activity.
For the compound `O=C(c1cccc2ccccc12)c1cn(CCCCCF)c2ccccc12` [AM-2201, [1-(5-fluoropentyl)-1H-indol-3-yl]-1-naphthalenyl-methanone, reference compound], on hCB1 receptor, the Emax is 99.7% and the pEC50 is 7.44.
Consider `CCCCCn1cc(C(=O)c2cccc3ccccc23)c2ccccc21` [JWH-018, 1-naphthalenyl(1-pentyl-1H-indol-3-yl)-methanone, reference compound], for which the “hCB1 activity in other” value in the assay with CB1 receptor was “agonist at nanomolar concentrations”. Besides, on hCB1 receptor, the Emax was found to be 102% and the pEC50 is 7.37.
Turning to `O=C(O)CCCCn1cc(C(=O)c2cccc3ccccc23)c2ccccc21` [Pentanoic acid JWH-018], the “hCB1 activity in other” value in the assay with CB1 receptor is “inactive”. The Emax on hCB1 receptor amounted to 0.23%.
For the compound `O=C(O)CCCCn1nc(C(=O)c2cccc3ccccc23)c2ccccc21` [Pentanoic acid THJ-018], the Emax at hCB1 receptor came to 11.7%.
For the compound `CCCCCn1nc(C(=O)c2cccc3ccccc23)c2ccccc21` [THJ-018, 1-naphthalenyl(1-pentyl-1H-indazol-3-yl)-methanone, reference compound], at hCB1 receptor, the Emax was found to be 96.4%; the pEC50 is 7.31; the “Efficacy (% JWH-018 activity), Emax” value is on record as 96.34 % JWH-018 activity.
Turning to `O=C(c1cccc2ccccc12)c1nn(CCCCCF)c2ccccc12` [THJ-2201, [1-(5-fluoropentyl)-1H-indazol-3-yl]-1-naphthalenyl-methanone, reference compound], on hCB1 receptor, the Emax was 92.8% and the pEC50 is 7.51.
As to `CCCCCn1cc(C(=O)O)c2ccccc21` [carboxylic acid PB-22, reference compound], in the assay on CB1 receptor (in vivo rat model and in vitro), the “CB1 / hCB1 activity in words” value was “inactive”. The “Activation of the serotonin receptor 5-HT2A in words” value in assay [1] was “activated”.
As for `O=C(c1cccc2ccccc12)c1cn(CCCCCO[C@@H]2O[C@H](C(=O)O)[C@@H](O)[C@H](O)[C@H]2O)c2ccccc12` [reference compound], the “Activity on hCB1 in words” value in the assay with CB1 receptor is “neutral antagonist”.

Usually pEC50 stands for −log10 of the EC50, conventionally taken in molar units.
